31 compounds from patent US20210261512A1, “NOVEL COMPOUNDS” (INFLAZOME LIMITED, priority 2018, published 2021) can be followed below.

This experiment has as its target NLRP3 (Homo sapiens, UniProt Q96P20). The experiment can be described thus: THP-1 cells pyroptosis assay. In kind it is cell-based. Details: Seed THP-1 cells (25,000 cells/well) containing 1.0 μg/ml LPS; host or cells: THP-1. The following applies: LPS 1.0 μg/ml, nigericin 5 μM, resazurin readout, 10 μM top dose (Example 2: top dose of 30 μM). The method, boiled down:
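THP-1 cells (25,000/well) primed with 1 μg/ml LPS in serum-free RPMI, treated with compound (8-point dilution, 10 μM top unless stated; 0.1% DMSO) 3 h at 37°C, then nigericin 5 μM 1 h. Viability read by resazurin (100 μM, 1-2 h) fluorescence; IC50 from 4-parameter fit.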

Chain of NLRP3 (Q96P20 whole entry): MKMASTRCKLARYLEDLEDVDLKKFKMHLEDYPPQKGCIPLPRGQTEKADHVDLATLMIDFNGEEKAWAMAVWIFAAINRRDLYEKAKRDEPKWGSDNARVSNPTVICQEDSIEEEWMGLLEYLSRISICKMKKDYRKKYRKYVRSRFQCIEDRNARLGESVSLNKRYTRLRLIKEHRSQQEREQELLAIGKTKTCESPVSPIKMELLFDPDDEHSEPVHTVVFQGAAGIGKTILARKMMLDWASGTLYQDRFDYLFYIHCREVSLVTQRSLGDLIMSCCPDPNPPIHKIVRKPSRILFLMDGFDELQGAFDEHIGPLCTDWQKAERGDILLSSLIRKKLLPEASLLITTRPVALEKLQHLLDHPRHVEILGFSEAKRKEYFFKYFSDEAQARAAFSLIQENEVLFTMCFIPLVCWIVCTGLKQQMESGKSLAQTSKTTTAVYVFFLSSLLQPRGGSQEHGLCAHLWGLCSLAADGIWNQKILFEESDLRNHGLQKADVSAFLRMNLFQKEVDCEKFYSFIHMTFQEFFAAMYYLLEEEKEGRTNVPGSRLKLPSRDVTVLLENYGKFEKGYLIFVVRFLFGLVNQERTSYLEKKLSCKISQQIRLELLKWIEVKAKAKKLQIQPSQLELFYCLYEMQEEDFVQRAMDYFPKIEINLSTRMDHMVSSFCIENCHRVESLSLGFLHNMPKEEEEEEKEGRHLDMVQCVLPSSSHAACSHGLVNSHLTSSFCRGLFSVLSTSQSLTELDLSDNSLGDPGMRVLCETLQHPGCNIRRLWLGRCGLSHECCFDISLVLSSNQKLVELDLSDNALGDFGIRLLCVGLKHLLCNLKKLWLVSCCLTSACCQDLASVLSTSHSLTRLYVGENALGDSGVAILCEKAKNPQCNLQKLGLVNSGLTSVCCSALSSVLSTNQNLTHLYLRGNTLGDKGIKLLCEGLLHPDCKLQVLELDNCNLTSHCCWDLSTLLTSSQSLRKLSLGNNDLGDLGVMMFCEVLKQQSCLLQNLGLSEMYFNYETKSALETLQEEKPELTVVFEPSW

What is called IC50 is the concentration that inhibits the measured activity by half. Low readings indicate greater potency, high ones weaker potency. Turning to `COCC(C)Oc1cc(-c2ccc3c(c2Nc2nnc(S(C)(=O)=O)[nH]2)CCC3)ccn1` (stereo not shown) [Example 237, N-(5-(2-((1-methoxypropan-2-yl)oxy)pyridin-4-yl)-2,3-dihydro-1H-inden-4-yl)-5-(methylsulfonyl)-4H-1,2,4-triazol-3-amine], the IC50 is no more than 5 µM.
As for `CN1CCN(CCNS(=O)(=O)c2nnc(Nc3c4c(cc5c3CCC5)CCC4)[nH]2)CC1` [Example 131, 5-((1,2,3,5,6,7-hexahydro-s-indacen-4-yl)amino)-N-(2-(4-methylpiperazin-1-yl)ethyl)-4H-1,2,4-triazole-3-sulfonamide], the figure is no more than 5 µM.
As for `CN1CCN(S(=O)(=O)c2nnc(Nc3c4c(cc5c3CCC5)CCC4)[nH]2)CC1` [Example 100, N-(1,2,3,5,6,7-hexahydro-s-indacen-4-yl)-5-((4-methylpiperazin-1-yl)sulfonyl)-4H-1,2,4-triazol-3-amine], the figure is no more than 5 µM; as for `CCN(CC)CCCS(=O)(=O)c1nnc(Nc2c(-c3ccccc3)cc(F)c3c2CCC3)[nH]1` [Example 78, 5-((3-(diethylamino)propyl)sulfonyl)-N-(7-fluoro-5-phenyl-2,3-dihydro-1H-inden-4-yl)-4H-1,2,4-triazol-3-amine], no more than 10 µM; as for `O=S(=O)(c1ccccc1)c1nnc(Nc2c(-c3ccncc3)ccc3c2CCC3)[nH]1` [Example 189, 5-(phenylsulfonyl)-N-(5-(pyridin-4-yl)-2,3-dihydro-1H-inden-4-yl)-4H-1,2,4-triazol-3-amine], no more than 10 µM.
As for `COc1cc(-c2cc(F)cc(C(C)C)c2Cc2nnc(S(=O)(=O)c3ccccc3)[nH]2)ccn1` [Example 155, 4-(5-fluoro-3-isopropyl-2-((5-(phenylsulfonyl)-4H-1,2,4-triazol-3-yl)-methyl)phenyl)-2-methoxypyridine], the figure is no more than 10 µM; as for `O=S(=O)(c1nnc(Nc2c3c(cc4c2CCC4)CCC3)[nH]1)N1CCC2(CCCN2CCF)CC1` [Example 255, 5-((1-(2-fluoroethyl)-1,8-diazaspiro[4.5]decan-8-yl)sulfonyl)-N-(1,2,3,5,6,7-hexahydro-s-indacen-4-yl)-4H-1,2,4-triazol-3-amine], no more than 1 µM.
`CC(C)(O)c1ccc(S(=O)(=O)c2nnc(Nc3c4c(cc5c3CCC5)CCC4)[nH]2)cc1` [Example 186, 2-(4-((5-((1,2,3,5,6,7-hexahydro-s-indacen-4-yl)amino)-4H-1,2,4-triazol-3-yl)sulfonyl)phenyl) propan-2-01] registered a 50% inhibitory concentration (IC50) of no more than 0.5 µM.
The compound `CN1CCCN(S(=O)(=O)c2nnc(Nc3c4c(cc5c3CCC5)CCC4)[nH]2)CC1` [Example 273, N-(1,2,3,5,6,7-hexahydro-s-indacen-4-yl)-5-((4-methyl-1,4-diazepan-1-yl)sulfonyl)-4H-1,2,4-triazol-3-amine] yielded a concentration for half-maximal inhibition (IC50) of no more than 10 µM.
The value for `CN1CCC(NS(=O)(=O)c2nnc(Nc3c4c(cc5c3CCC5)CCC4)[nH]2)C1` (stereo not shown) [Example 84, 5-((1,2,3,5,6,7-hexahydro-s-indacen-4-yl)amino)-N-(1-methylpyrrolidin-3-yl)-4H-1,2,4-triazole-3-sulfonamide] was no more than 5 µM; that for `CC(C)(O)C1CCCN(S(=O)(=O)c2nnc(Nc3c4c(cc5c3CCC5)CCC4)[nH]2)C1` (stereo not shown) [Example 315, 2-(1-((5-((1,2,3,5,6,7-hexahydro-s-indacen-4-yl)amino)-4H-1,2,4-triazol-3-yl)sulfonyl)piperidin-3-yl)propan-2-ol] was no more than 5 µM; that for `O=S(=O)(c1nnc(Nc2c3c(cc4c2CCC4)CCC3)[nH]1)C1CCCC(N2CCCC2)C1` (stereo not shown) [Example 194, N-(1,2,3,5,6,7-hexahydro-s-indacen-4-yl)-3-((3-(pyrrolidin-1-yl)cyclohexyl)sulfonyl)-1H-1,2,4-triazol-5-amine] was no more than 10 µM.
`Cn1ncc(S(=O)(=O)c2nnc(Nc3c4c(cc5c3CCC5)CCC4)[nH]2)c1C#N` [Example 355, 4-((5-((1,2,3,5,6,7-hexahydro-s-indacen-4-yl)amino)-4H-1,2,4-triazol-3-yl)sulfonyl)-1-methyl-1H-pyrazole-5-carbonitrile] gave a concentration for half-maximal inhibition (IC50) of no more than 5 µM.
The value for `O=S(=O)(c1ccccn1)c1nnc(Nc2c3c(cc4c2CCC4)CCC3)[nH]1` [Example 170, N-(1,2,3,5,6,7-hexahydro-s-indacen-4-yl)-5-(pyridin-2-ylsulfonyl)-4H-1,2,4-triazol-5-amine] was no more than 1 µM.
The value for `Cn1cc(NS(=O)(=O)c2nnc(Nc3c4c(cc5c3CCC5)CCC4)[nH]2)cn1` [Example 99, 5-((1,2,3,5,6,7-hexahydro-s-indacen-4-yl)amino)-N-(1-methyl-1H-pyrazol-4-yl)-4H-1,2,4-triazole-3-sulfonamide] was no more than 10 µM; that for `CC(C)(O)CNS(=O)(=O)c1nnc(Nc2c3c(cc4c2CCC4)CCC3)[nH]1` [Example 272, 5-((1,2,3,5,6,7-hexahydro-s-indacen-4-yl)amino)-N-(2-hydroxy-2-methylpropyl)-4H-1,2,4-triazole-3-sulfonamide] was no more than 10 µM.
As for `COc1cc(-c2ccc3c(c2Nc2nnc(S(C)(=O)=O)[nH]2)CCC3)ccn1` [Example 361, N-(5-(2-methoxypyridin-4-yl)-2,3-dihydro-1H-inden-4-yl)-5-(methylsulfonyl)-4H-1,2,4-triazol-3-amine], the figure is no more than 10 µM.
`O=S(=O)(NCc1cccnc1)c1nnc(Nc2c3c(cc4c2CCC4)CCC3)[nH]1` [Example 97, 5-((1,2,3,5,6,7-hexahydro-s-indacen-4-yl)amino)-N-(pyridin-3-ylmethyl)-4H-1,2,4-triazole-3-sulfonamide] came in with a half-maximal inhibitory concentration (IC50) of no more than 5 µM.
The value for `O=S(=O)(c1nnc(Nc2c3c(cc4c2CCC4)CCC3)[nH]1)N1CCCC2(CCOC2)C1` (stereo not shown) [Example 313, 5-(2-oxa-7-azaspiro[4.5]decan-7-ylsulfonyl)-N-(1,2,3,5,6,7-hexahydro-s-indacen-4-yl)-4H-1,2,4-triazol-3-amine] was no more than 5 µM; that for `CNS(=O)(=O)c1nnc(Nc2c3c(cc4c2CCC4)CCC3)[nH]1` [Example 371, 5-((1,2,3,5,6,7-hexahydro-s-indacen-4-yl)amino)-N-methyl-4H-1,2,4-triazole-3-sulfonamide] was no more than 5 µM.
As for `O=S(=O)(c1cccnn1)c1n[nH]c(Nc2c3c(cc4c2CCC4)CCC3)n1` [Example 167, N-(1,2,3,5,6,7-hexahydro-s-indacen-4-yl)-3-(pyridazin-3-ylsulfonyl)-1H-1,2,4-triazol-5-amine], the figure is no more than 5 µM.
As for `COC1(c2cc([S+]([O-])c3nnc(Nc4c5c(cc6c4CCC6)CCC5)[nH]3)nn2C)COC1` (stereo not shown) [Example 26, N-(1,2,3,5,6,7-hexahydro-s-indacen-4-yl)-5-((5-(3-methoxyoxetan-3-yl)-1-methyl-1H-pyrazol-3-yl)sulfinyl)-4H-1,2,4-triazol-3-amine], the figure is no more than 10 µM; as for `NC(=O)c1ccc(S(=O)(=O)c2nnc(Nc3c4c(cc5c3CCC5)CCC4)[nH]2)cc1` [Example 327, 4-((5-((1,2,3,5,6,7-hexahydro-s-indacen-4-yl)amino)-4H-1,2,4-triazol-3-yl)sulfonyl)benzamide], no more than 5 µM.
Take `COc1cc(-c2ccc3c(c2Cc2nnc(S(=O)(=O)N4CCC(CN(C)C)C4)[nH]2)CCC3)ccn1` (stereo not shown) [Example 160, 1-(1-((5-((5-(2-methoxypyridin-4-yl)-2,3-dihydro-1H-inden-4-yl)-methyl)-4H-1,2,4-triazol-3-yl)sulfonyl)pyrrolidin-3-yl)-N,N-dimethylmethanamine]: the IC50 is no more than 5 µM.
On to `O=S(=O)(Cc1ccccn1)c1nnc(Nc2c3c(cc4c2CCC4)CCC3)[nH]1` [Example 71, N-(1,2,3,5,6,7-hexahydro-s-indacen-4-yl)-3-((pyridin-2-ylmethyl)sulfonyl)-1H-1,2,4-triazol-5-amine], for which the IC50 was no more than 10 µM.
As for `O=c1cccc(CNS(=O)(=O)c2nnc(Nc3c4c(cc5c3CCC5)CCC4)[nH]2)[nH]1` [Example 103, 5-((1,2,3,5,6,7-hexahydro-s-indacen-4-yl)amino)-N-((6-oxo-1,6-dihydropyridin-2-yl)methyl)-4H-1,2,4-triazole-3-sulfonamide], the figure is no more than 5 µM.
As for “(E)-1-(8-((5-((4-(dimethylamino)piperidin-1-yl)sulfonyl)-4H-1,2,4-triazol-3-yl)amino)-1,2,3,5,6,7-hexahydro-s-indacen-4-yl)ethan-1-one oxime and (Z)-1-(8-((5-((4-(dimethylamino)piperidin-1-yl)sulfonyl)-4H-1,2,4-triazol-3-yl)amino)-1,2,3,5,6,7-hexahydro-s-indacen-4-yl)ethan-1-one oxime [Example 309]”, the figure is no more than 5 µM.
The value for `O=C1CCCN1CCNS(=O)(=O)c1nnc(Nc2c3c(cc4c2CCC4)CCC3)[nH]1` [Example 114, 5-((1,2,3,5,6,7-hexahydro-s-indacen-4-yl)amino)-N-(2-(2-oxopyrrolidin-1-yl)ethyl)-4H-1,2,4-triazole-3-sulfonamide] was no more than 5 µM; that for `CN1CCN(CCCS(=O)(=O)c2nnc(Nc3c4c(cc5c3CCC5)CCC4)[nH]2)CC1` [Example 51, N-(1,2,3,5,6,7-hexahydro-s-indacen-4-yl)-5-((3-(4-methylpiperazin-1-yl)propyl)sulfonyl)-4H-1,2,4-triazol-3-amine] was no more than 5 µM; that for `COc1cc(-c2cc(F)cc(C(C)C)c2Oc2nnc(S(=O)(=O)N3CCC(N(C)C)CC3)[nH]2)ccn1` [Example 253, 1-((5-(4-fluoro-2-isopropyl-6-(2-methoxypyridin-4-yl)phenoxy)-4H-1,2,4-triazol-3-yl)sulfonyl)-N,N-dimethylpiperidin-4-amine] was no more than 5 µM.
With `COc1ccccc1S(=O)(=O)c1nnc(Nc2c3c(cc4c2CCC4)CCC3)[nH]1` [Example 173, N-(1,2,3,5,6,7-hexahydro-s-indacen-4-yl)-5-((2-methoxyphenyl)sulfonyl)-4H-1,2,4-triazol-3-amine], the concentration for half-maximal inhibition (IC50) is no more than 1 µM.
